Reference: US8344008B2 (Janssen Pharmaceutica NV, priority 2007, dated 2013)
Counter-ions that a name gives are not always drawn.

Target: T1, recombinant human LTA4 hydrolase (rhLTA4H) (Homo sapiens, UniProt P09960)
T1 construct: made in house; host or cells: Spodoptera frugiperda (Sf-9) cells, baculovirus (pFastBac1)
T1 sequence (P09960 1-611): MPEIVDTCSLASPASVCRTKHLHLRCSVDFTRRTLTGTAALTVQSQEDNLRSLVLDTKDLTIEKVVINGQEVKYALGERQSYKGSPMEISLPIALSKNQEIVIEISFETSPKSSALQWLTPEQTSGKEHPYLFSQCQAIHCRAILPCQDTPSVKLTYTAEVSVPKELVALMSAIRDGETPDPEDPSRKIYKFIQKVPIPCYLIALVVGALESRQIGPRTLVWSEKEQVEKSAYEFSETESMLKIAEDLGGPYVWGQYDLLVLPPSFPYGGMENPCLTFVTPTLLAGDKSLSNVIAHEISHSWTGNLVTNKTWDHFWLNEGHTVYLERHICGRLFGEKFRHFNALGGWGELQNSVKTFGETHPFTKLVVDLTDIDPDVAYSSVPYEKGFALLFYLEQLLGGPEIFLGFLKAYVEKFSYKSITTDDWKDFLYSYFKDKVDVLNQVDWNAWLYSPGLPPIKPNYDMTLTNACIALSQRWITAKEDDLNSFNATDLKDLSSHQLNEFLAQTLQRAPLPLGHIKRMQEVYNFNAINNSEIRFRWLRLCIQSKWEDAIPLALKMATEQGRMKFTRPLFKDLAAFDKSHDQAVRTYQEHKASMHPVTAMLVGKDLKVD
Assay: Recombinant Human LTA4 Hydrolase Assay for LTA4 Hydrolase Inhibitor Activity
Assay type: biochemical
Details: average of results obtained; LTB4 quantified by enzyme-linked immunoassay
Procedure: Biological Methods: Recombinant Human LTA4 Hydrolase Assay for LTA4 Hydrolase Inhibitor Activity
Compounds of the present invention were tested for LTA4 hydrolase inhibitor activity against recombinant human LTA4 hydrolase (rhLTA4H). Vectors were prepared and used to express rhLTA4H essentially as follows: LTA4 hydrolase encoding DNA was amplified by polymerase chain reaction (PCR) using a human placental cDNA library as a template. Oligonucleotide primers for the PCR reaction were based on the 5′-end, and the complement of the 3′-end, of the published nucleotide sequence for the coding region of the human LTA4 hydrolase gene (C. D. Funk et al., Proc. Natl. Acad. Sci. USA 1987, 84:6677-6681). The amplified 1.9 kb DNA fragment encoding LTA4 hydrolase was isolated and cloned into the pFastBac1 vector (Invitrogen). Recombinant baculovirus was generated as described by the manufacturer, and used to infect Spodoptera frugiperda (Sf-9) cells. Recombinant LTA4 hydrolase enzyme was purified from the infected Sf-9 cells essentially as described by J. K. Gierse et al. (Protein Expression and Purification 1993, 4:358-366). The purified enzyme solution was adjusted to contain 0.29 mg/mL LTA4 hydrolase, 50 mM Tris (pH 8.0), 150 mM NaCl, 5 mM dithiothreitol, 50% glycerol, and EDTA-free Complete protease inhibitor cocktail (Roche). The specific activity of the enzyme was about 3.8 μmol/min/mg.
LTA4 substrate was prepared from the methyl ester of LTA4 (Cayman Chemical) by treatment with 67 equiv of NaOH under nitrogen at rt for 40 min. The LTA4 substrate in its free acid form was kept frozen at −80° C. until needed. Each compound was diluted to different concentrations in assay buffer (0.1 M potassium phosphate (pH 7.4), 5 mg/mL fatty acid free BSA) containing 10% DMSO. A 25-uL aliquot of each compound dilution was incubated for 10 min at rt with an equal volume of assay buffer containing 36 ng of recombinant human LTA4H. The solution was then adjusted to 200 μL with assay buffer. LTA4 (free acid) was thawed and diluted in assay buffer to a concentration of 357 ng/mL, and 25 μL (9 ng) of LTA4 substrate was added to the reaction mixture (total volume=225 μL) at time zero. Each reaction was carried out at rt for 10 min. The reaction was stopped by diluting 10 μL of the reaction mixture with 200 μL of assay buffer. LTB4 was quantified in the diluted sample by a commercially available enzyme-linked immunoassay (Cayman Chemical Co.), as recommended by the manufacturer. Positive controls, under essentially identical conditions but without addition of an inhibitor compound, and negative controls, containing all assay components except enzyme, were routinely run in each experiment. […]
Results for the compounds tested in this assay are presented in Table 1 as an average of results obtained.

| Ki [nM] | SMILES |
| --- | --- |
| 57 | CS(=O)(=O)N1C[C@@H]2C[C@H]1CN2CCc1ccc(Oc2nc3ccccc3s2)cc1 [Example 47, (S,S)-2-{4-[2-(5-Methanesulfonyl-2,5-diaza-bicyclo[2.2.1]hept-2-yl)-ethyl]-phenoxy}-benzothiazole] |
| 1170 | CS(=O)(=O)N1C[C@@H]2C[C@H]1CN2CCc1cccc(Oc2nc3ccccc3s2)c1 [Example 48, (S,S)-2-{3-[2-(5-Methanesulfonyl-2,5-diaza-bicyclo[2.2.1]hept-2-yl)-ethyl}phenoxy]benzothiazole] |
| 20 | CS(=O)(=O)N1C[C@@H]2C[C@H]1CN2CCOc1ccc(Oc2nc3ccccc3s2)cc1 [Example 49, (S,S)-2-{4-[2-(5-Methanesulfonyl-2,5-diaza-bicyclo[2.2.1]hept-2-yl)-ethoxy]-phenoxy}-benzothiazole] |
| 9 | CC(C)(C)OC(=O)CN1C[C@@H]2C[C@H]1CN2Cc1ccc(Oc2nc3ccccc3s2)cc1 [Example 50, (S,S)-{5-[4-(Benzothiazol-2-yloxy)-benzyl]-2,5-diaza-bicyclo[2.2.1]hept-2-yl}-acetic acid tert-butyl ester] |
| 92 | CC(=O)N1C2CCC1CN(Cc1ccc(Oc3nc4ccccc4s3)cc1)C2 [Example 51, meso-1-{3-[4-(Benzothiazol-2-yloxy)-benzyl]-3,8-diaza-bicyclo[3.2.1]oct-8-yl}-ethanone] |
| 2 | CC(=O)N[C@H]1C[C@H]2CC[C@@H](C1)N2Cc1ccc(Oc2nc3ccccc3s2)cc1 [Example 52, meso-endo-N-{8-[4-(Benzothiazol-2-yloxy)-benzyl]-8-aza-bicyclo[3.2.1]oct-3-yl}-acetamide] |
| 117 | CC(C)(O)C(=O)N1C2CCC1CN(Cc1ccc(Oc3nc4ccccc4s3)cc1)C2 [Example 53, meso-1-{3-[4-(Benzothiazol-2-yloxy)-benzyl]-3,8-diaza-bicyclo[3.2.1]oct-8-yl}-2-hydroxy-2-methyl-propan-1-one] |
| 4 | CC(C)(O)C(=O)N[C@H]1C[C@H]2CC[C@@H](C1)N2Cc1ccc(Oc2nc3ccccc3s2)cc1 [Example 54, meso-endo-N-{8-[4-(Benzothiazol-2-yloxy)-benzyl]-8-aza-bicyclo[3.2.1]oct-3-yl}-2-hydroxy-2-methyl-propionamide] |
| 116 | NCC(=O)N1C2CCC1CN(Cc1ccc(Oc3nc4ccccc4s3)cc1)C2 [Example 55, meso-2-Amino-1-{3-[4-(benzothiazol-2-yloxy)-benzyl]-3,8-diaza-bicyclo[3.2.1]oct-8-yl}-ethanone] |
| 30 | NCC(=O)N[C@H]1C[C@H]2CC[C@@H](C1)N2Cc1ccc(Oc2nc3ccccc3s2)cc1 [Example 56, meso-endo-2-Amino-N-{8-[4-(benzothiazol-2-yloxy)-benzyl]-8-aza-bicyclo[3.2.1]oct-3-yl}-acetamide] |
| 173 | CS(=O)(=O)N1C2CCC1CN(Cc1ccc(Oc3nc4ccccc4s3)cc1)C2 [Example 57, meso-2-[4-(8-Methanesulfonyl-3,8-diaza-bicyclo[3.2.1]oct-3-ylmethyl)-phenoxy]-benzothiazole] |
| 0.2 | CS(=O)(=O)N[C@H]1C[C@H]2CC[C@@H](C1)N2Cc1ccc(Oc2nc3ccccc3s2)cc1 [Example 58, meso-endo-N-{8-[4-(Benzothiazol-2-yloxy)-benzyl]-8-aza-bicyclo[3.2.1]oct-3-yl}-methanesulfonamide] |
| 174 | NC(=O)N1C2CCC1CN(Cc1ccc(Oc3nc4ccccc4s3)cc1)C2 [Example 59, meso-3-[4-(Benzothiazol-2-yloxy)-benzyl]-3,8-diaza-bicyclo[3.2.1]octane-8-carboxylic acid amide] |
| 2 | NC(=O)N[C@H]1C[C@H]2CC[C@@H](C1)N2Cc1ccc(Oc2nc3ccccc3s2)cc1 [Example 60, meso-endo-{8-[4-(Benzothiazol-2-yloxy)-benzyl]-8-aza-bicyclo[3.2.1]oct-3-yl}-urea] |
| 27 | O=C(c1cccs1)N1C[C@@H]2C[C@H]1CN2Cc1ccc(Oc2nc3ccccc3s2)cc1 [Example 61, (S,S)-{5-[4-(Benzothiazol-2-yloxy)-benzyl]-2,5-diaza-bicyclo[2.2.1]hept-2-yl}-thiophen-2-yl-methanone] |
| 36 | O=C(c1ccc[nH]1)N1C[C@@H]2C[C@H]1CN2Cc1ccc(Oc2nc3ccccc3s2)cc1 [Example 62, (S,S)-{5-[4-(Benzothiazol-2-yloxy)-benzyl]-2,5-diaza-bicyclo[2.2.1]hept-2-yl}-(1H-pyrrol-2-yl)-methanone] |
| 21 | CC(C)(C)OC(=O)NC1(C(=O)N2C[C@@H]3C[C@H]2CN3Cc2ccc(Oc3nc4ccccc4s3)cc2)CC1 [Example 63, (S,S)-(1-{5-[4-(Benzothiazol-2-yloxy)-benzyl]-2,5-diaza-bicyclo[2.2.1]heptane-2-carbonyl}-cyclopropyl)-carbamic acid tert-butyl ester] |
| 58 | CC(C)(C)OC(=O)N1CC(C(=O)N2C[C@@H]3C[C@H]2CN3Cc2ccc(Oc3nc4ccccc4s3)cc2)C1 [Example 64, (S,S)-3-{5-[4-(Benzothiazol-2-yloxy)-benzyl]-2,5-diaza-bicyclo[2.2.1]heptane-2-carbonyl}-azetidine-1-carboxylic acid tert-butyl ester] |
| 64 | O=C(c1ccc[nH]1)N1C[C@@H]2C[C@H]1CN2CCOc1ccc(Oc2nc3ccccc3s2)cc1 [Example 65, (S,S)-(5-{2-[4-(Benzothiazol-2-yloxy)-phenoxy]-ethyl}-2,5-diaza-bicyclo[2.2.1]hept-2-yl)-(1H-pyrrol-2-yl)-methanone] |
| 191 | CC(C)(C)OC(=O)NC1(C(=O)N2C[C@@H]3C[C@H]2CN3CCOc2ccc(Oc3nc4ccccc4s3)cc2)CC1 [Example 66, (S,S)-[1-(5-{2-[4-(Benzothiazol-2-yloxy)-phenoxy]-ethyl}-2,5-diaza-bicyclo[2.2.1]heptane-2-carbonyl)-cyclopropyl]-carbamic acid tert-butyl ester] |
| 201 | CC(C)(C)OC(=O)N1CC(C(=O)N2C[C@@H]3C[C@H]2CN3CCOc2ccc(Oc3nc4ccccc4s3)cc2)C1 [Example 67, (S,S)-3-(5-{2-[4-(Benzothiazol-2-yloxy)-phenoxy]-ethyl}-2,5-diaza-bicyclo[2.2.1]heptane-2-carbonyl)-azetidine-1-carboxylic acid tert-butyl ester] |
| 2 | CC(=O)N[C@H]1C[C@H]2CC[C@@H](C1)N2Cc1ccc(Oc2nc3c(F)cccc3s2)cc1 [Example 68, meso-endo-N-{8-[4-(4-Fluoro-benzothiazol-2-yloxy)-benzyl]-8-aza-bicyclo[3.2.1]oct-3-yl}-acetamide] |
| 450 | c1cc(CN2C[C@@H]3C[C@H]2CN3)cc(Oc2nc3ccccc3s2)c1 [Example 69, (S,S)-2-[3-(2,5-Diaza-bicyclo[2.2.1]hept-2-ylmethyl)-phenoxy]-benzothiazole hydrochloride] |
| 4 | CC(=O)N(C)[C@H]1C[C@H]2CC[C@@H](C1)N2Cc1ccc(Oc2nc3ccccc3s2)cc1 [Example 70, meso-endo-N-{8-[4-(Benzothiazol-2-yloxy)-benzyl]-8-aza-bicyclo[3.2.1]oct-3-yl}-N-methyl-acetamide] |
| 25 | CC(=O)N[C@H]1C[C@H]2CC[C@@H](C1)N2Cc1ccc(Oc2nc3c(Cl)cccc3s2)cc1 [Example 71, meso-endo-N-{8-[4-(4-Chloro-benzothiazol-2-yloxy)-benzyl]-8-aza-bicyclo[3.2.1]oct-3-yl}-acetamide] |
